Measured values as given in patent US6585954B1, “Method for searching steroid sulfatase inhibitors” (Kyowa Hakko Kogyo Co., Ltd., priority 1998, dated 2003).

Columns and labels:
[1] = test system: tumor of transformed cell line carrying the introduced human steroid sulfatase gene (STS); experiment: Effect of a steroid sulfatase inhibitor on estrone-3-sulfate-dependent tumor growth in nude mice (Example 5); format: in vivo, BALB/c-nu/nu mice; conditions: 0.1 mg/kg estrone-3-sulfate alone, subcutaneously for 22 days; by the 38th day
Procedure: The volume of a tumor can be calculated from the shorter diameter and the longer diameter of the tumor measured with slide calipers according to the following approximation formula.
Tumor volume=(longer diameter)×(shorter diameter)^2÷2
Animals in which the tumor growth was confirmed after administration of estrone-3-sulfate are selected, and a test compound is administered thereto. Then, the tumor volume is measured to estimate the steroid sulfatase-inhibiting activity of the test compound. The test compound may be administered by any of intravenous, subcutaneous, intraperitoneal and oral routes. The steroid sulfatase-inhibiting activity of the compound can be estimated by measuring the tumor volume at intervals of 3-4 days after the administration, and then comparing the tumor growth between the group to which only estrone-3-sulfate was administered and the group to which estrone-3-sulfate and the test compound were administered.
(§1) The cells were suspended at a concentration of 2×10^8 cells/ml and the suspension was mixed with an equal volume of matrigel-basement membrane (Becton & Dickinson). The resulting mixture was subcutaneously transplanted into 7- to 8-weeks-old female BALB/c-nu/nu mice, (nude mice, each group consisting of 5 mice) in an amount of 0.1 ml (1×10^7 cells). […]

[2] = test system: transformed cell line carrying the introduced human steroid sulfatase gene (STS); experiment: Tumor formation after transplantation of cells carrying an introduced steroid sulfatase gene (Example 4); format: in vivo, BALB/c-nu/nu mice; conditions: 0.1 mg/kg estrone-3-sulfate subcutaneously every day, after tumor growth stopped following estrogen preparation
Description: First, cells carrying the introduced steroid sulfatase gene are transplanted into an animal such as a mouse for fixation to form a tumor. That is, tumor cells carrying the introduced steroid sulfatase gene are transplanted subcutaneously into an immunodeficient mouse, for example, a BALB/c-nu/nu (a nude mouse) or an SCID mouse in an amount of 1-5×10^6 cells to form a tumor. At the time of transplantation, a crude extract of basement membrane containing adhesion factor (e.g., matrigel-basement membrane, Becton & Dickinson) may be added in order to improve the fixation rate [Br. J. Cancer, 67, 953 (1993)]. In the case of estrogen-dependent breast cancer, the fixation rate is improved and the tumor growth after the fixation is promoted by administering an estrogen compound.
as §1, with “cells). On the day of transplantation and 2 weeks later, an estrogen preparation (EP depo, Teikoku Zoki) was intramuscularly administered.” for “cells).”

SMILES: C[C@]12CC[C@@H]3c4ccc(OS(=O)(=O)O)cc4CC[C@H]3[C@@H]1CCC2=O [estrone-3-sulfate]
- tumor volume relative to the initial volume [1]: 1.4 times the initial volume
- tumor growth after administration [2]: the tumor grew in all mice and there was no reduction of tumor
